Measurements from patent US20120135997A1, “PHARMACEUTICAL COMPOSITION COMPRISING A LACTAM OR BENZENESULFONAMIDE COMPOUND” (Shionogi & Co., Ltd., priority 2009, published 2012).

How the values were obtained:
Test in all cases: CYP inhibition test, pooled human liver microsomes
Format in all cases: in vitro ADME
CYP3A4 = CYP3A4 (Homo sapiens, UniProt P08684); parameters: from tissue; host or cells: pooled human liver microsomes; details: hydroxylation of terfenadine
Source text: Using commercially available pooled human liver microsomes and employing typical substrate metabolic reactions of 5 major species of human CYP enzymes (CYP1A2, 2C9, 2C19, 2D6, 3A4), namely, O-deethylation of 7-ethoxyresorufin (CYP1A2), methyl-hydroxylation of tolbutamide (CYP2C9), 4′-hydroxylation of mephenyloin (CYP2C19), O-demethylation of dextromethorphan (CYP2D6), and hydroxylation of terfenadine (CYP3A4), as indicator reactions, the degree of inhibition of each metabolite production by each test compound is evaluated. […] Centrifugation is performed for 15 minutes at 3000 rpm, and each metabolite in the centrifuged supernatant is quantified. Namely, resorufin (CYP1A2 metabolite) is quantified with a fluorescence multilabel counter, and hydroxylated tolbutamide (CYP2C9 metabolite), 4′-hydroxylated mephenyloin (CYP2C19 metabolite), dextrorphan (CYP2D6 metabolite) and alcoholized terfenadine (CYP3A4 metabolite) are quantified with LC/MS/MS. […] The remaining activity (%) at each concentration after adding the test compound solution is calculated, and the […] is calculated from the concentration and inhibition percentage by inverse estimation with the logistic model.

CYP2C9 = target: T1, CYP2C9 (Homo sapiens, UniProt P11712); details: methyl-hydroxylation of tolbutamide
T1 construct: from tissue; host or cells: pooled human liver microsomes
T1 sequence (P11712 whole entry): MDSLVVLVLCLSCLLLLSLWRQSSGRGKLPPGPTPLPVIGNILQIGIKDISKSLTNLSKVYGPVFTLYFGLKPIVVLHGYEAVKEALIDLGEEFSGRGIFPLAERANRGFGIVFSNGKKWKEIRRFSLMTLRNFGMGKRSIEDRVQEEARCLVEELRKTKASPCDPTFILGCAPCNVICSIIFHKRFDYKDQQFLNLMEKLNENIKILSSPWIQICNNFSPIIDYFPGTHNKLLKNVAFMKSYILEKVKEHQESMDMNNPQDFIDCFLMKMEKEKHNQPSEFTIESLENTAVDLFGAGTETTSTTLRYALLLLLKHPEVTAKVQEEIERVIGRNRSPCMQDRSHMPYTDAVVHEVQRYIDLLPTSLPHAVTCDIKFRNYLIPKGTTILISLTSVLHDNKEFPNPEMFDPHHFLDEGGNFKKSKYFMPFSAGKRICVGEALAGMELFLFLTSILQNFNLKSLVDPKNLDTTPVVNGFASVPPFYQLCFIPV
Source text: (§1) Using commercially available pooled human liver microsomes and employing typical substrate metabolic reactions of 5 major species of human CYP enzymes (CYP1A2, 2C9, 2C19, 2D6, 3A4), namely, O-deethylation of 7-ethoxyresorufin (CYP1A2), methyl-hydroxylation of tolbutamide (CYP2C9), 4′-hydroxylation of mephenyloin (CYP2C19), O-demethylation of dextromethorphan (CYP2D6), and hydroxylation of terfenadine (CYP3A4), as indicator reactions, the degree of inhibition of each metabolite production by each test compound is evaluated. The reaction conditions are as follows: Substrate: 0.5 μmol/L of ethoxyresorufin (CYP1A2), 100 μmol/L of tolbutamide (CYP2C9), 50 μmol/L of S-mephenyloin (CYP2C19), 5 μmol/L of dextromethorphan (CYP2D6), 1 μmol/L of terfenadine (CYP3A4); Reaction time period: 15 minutes; Reaction temperature: 37° C.; Enzyme: pooled human liver microsomes 0.2 mg protein/mL; Test compound concentration: 1, 5, 10 and 20 μmol/L (four different concentrations). As a reaction solution, the respective five substrates, human liver microsomes, and test compound in the aforementioned amounts are added to a 50 mM Hepes buffer in a 96-well plate. NADPH, which is a coenzyme, is added thereto to start the indicator metabolic reaction. The reaction proceeds for 15 minutes at 37° C., and the solution of methanol/acetonitrile=1/1 (v/v) is added so as to terminate the reaction. Centrifugation is performed for 15 minutes at 3000 rpm, and each metabolite in the centrifuged supernatant is quantified. Namely, resorufin (CYP1A2 metabolite) is quantified with a fluorescence multilabel counter, and hydroxylated tolbutamide (CYP2C9 metabolite), 4′-hydroxylated mephenyloin (CYP2C19 metabolite), dextrorphan (CYP2D6 metabolite) and alcoholized terfenadine (CYP3A4 metabolite) are quantified with LC/MS/MS. Control (100%) is prepared by adding only DMSO, a solvent to dissolve the test compound, to the reaction system. The remaining activity (%) at each concentration after adding the test compound solution is calculated, and the […] is calculated from the concentration and inhibition percentage by inverse estimation with the logistic model.

CYP2C19 = target: T2, CYP2C19 (Homo sapiens, UniProt P33261); details: 4′-hydroxylation of mephenyloin
T2 construct: from tissue; host or cells: pooled human liver microsomes
T2 sequence (P33261 whole entry): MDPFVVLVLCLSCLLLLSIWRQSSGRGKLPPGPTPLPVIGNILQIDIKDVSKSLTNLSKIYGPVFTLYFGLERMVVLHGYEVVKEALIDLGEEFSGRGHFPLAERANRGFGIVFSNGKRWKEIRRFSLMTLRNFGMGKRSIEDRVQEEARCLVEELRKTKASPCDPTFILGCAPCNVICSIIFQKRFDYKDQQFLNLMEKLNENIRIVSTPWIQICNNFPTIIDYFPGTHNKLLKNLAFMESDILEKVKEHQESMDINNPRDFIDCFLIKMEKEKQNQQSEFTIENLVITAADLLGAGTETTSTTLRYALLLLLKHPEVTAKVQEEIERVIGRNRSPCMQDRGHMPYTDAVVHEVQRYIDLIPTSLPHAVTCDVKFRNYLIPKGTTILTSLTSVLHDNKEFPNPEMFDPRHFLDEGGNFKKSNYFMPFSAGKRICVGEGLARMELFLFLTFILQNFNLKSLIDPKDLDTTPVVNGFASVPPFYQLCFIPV
Source text: as §1

CYP2D6 = target: T3, CYP2D6 (Homo sapiens, UniProt P10635); details: O-demethylation of dextromethorphan
T3 construct: from tissue; host or cells: pooled human liver microsomes
T3 sequence (P10635 whole entry): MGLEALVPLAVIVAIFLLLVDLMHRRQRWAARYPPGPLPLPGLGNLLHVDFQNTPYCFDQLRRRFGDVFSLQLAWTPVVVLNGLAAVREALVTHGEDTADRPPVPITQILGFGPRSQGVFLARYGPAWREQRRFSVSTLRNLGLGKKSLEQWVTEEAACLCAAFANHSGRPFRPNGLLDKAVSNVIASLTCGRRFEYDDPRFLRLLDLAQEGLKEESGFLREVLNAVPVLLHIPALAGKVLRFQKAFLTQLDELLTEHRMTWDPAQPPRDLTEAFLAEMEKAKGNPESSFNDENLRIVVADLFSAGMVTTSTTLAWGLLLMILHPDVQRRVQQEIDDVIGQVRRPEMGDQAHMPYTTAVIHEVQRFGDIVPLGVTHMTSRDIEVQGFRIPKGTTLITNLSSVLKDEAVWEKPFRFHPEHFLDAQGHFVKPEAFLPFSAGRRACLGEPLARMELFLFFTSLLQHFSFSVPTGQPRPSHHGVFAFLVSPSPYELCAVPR
Source text: as §1

CYP1A2 = target: T4, CYP1A2 (Homo sapiens, UniProt P05177); details: O-deethylation of 7-ethoxyresorufin
T4 construct: from tissue; host or cells: pooled human liver microsomes
T4 sequence (P05177 1-516): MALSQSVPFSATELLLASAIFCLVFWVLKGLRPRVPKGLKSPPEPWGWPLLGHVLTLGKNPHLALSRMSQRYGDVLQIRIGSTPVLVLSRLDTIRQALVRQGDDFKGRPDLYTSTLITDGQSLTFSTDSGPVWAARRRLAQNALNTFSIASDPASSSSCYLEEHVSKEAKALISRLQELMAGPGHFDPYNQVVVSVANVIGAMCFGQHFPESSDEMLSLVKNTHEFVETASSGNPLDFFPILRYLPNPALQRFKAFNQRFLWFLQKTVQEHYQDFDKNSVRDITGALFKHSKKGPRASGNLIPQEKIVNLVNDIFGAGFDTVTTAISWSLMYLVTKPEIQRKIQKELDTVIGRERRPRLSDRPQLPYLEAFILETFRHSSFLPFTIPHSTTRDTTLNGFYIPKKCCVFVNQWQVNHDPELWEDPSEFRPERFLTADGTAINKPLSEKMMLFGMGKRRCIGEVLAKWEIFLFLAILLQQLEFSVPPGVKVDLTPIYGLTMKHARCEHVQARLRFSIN
Source text: as §1

Measured: IC50

Chain of CYP3A4 (P08684 whole entry): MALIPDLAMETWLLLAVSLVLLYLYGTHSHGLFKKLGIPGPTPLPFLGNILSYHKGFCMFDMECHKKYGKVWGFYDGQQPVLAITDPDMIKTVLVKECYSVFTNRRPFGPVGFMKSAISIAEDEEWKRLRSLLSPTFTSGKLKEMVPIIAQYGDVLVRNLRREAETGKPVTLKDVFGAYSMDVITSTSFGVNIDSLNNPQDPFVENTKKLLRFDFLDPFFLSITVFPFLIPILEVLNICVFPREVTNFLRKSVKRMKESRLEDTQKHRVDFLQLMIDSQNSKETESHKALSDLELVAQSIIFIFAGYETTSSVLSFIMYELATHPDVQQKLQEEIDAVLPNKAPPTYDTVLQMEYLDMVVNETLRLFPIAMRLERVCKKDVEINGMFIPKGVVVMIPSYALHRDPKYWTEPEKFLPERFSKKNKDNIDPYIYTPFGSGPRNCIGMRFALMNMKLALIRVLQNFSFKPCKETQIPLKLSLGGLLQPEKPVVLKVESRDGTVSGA

COc1cc(NS(=O)(=O)c2ccccc2CO)ccc1-n1cnc(C)c1 [Compound 121]
> 10 µM: all assays above
